This is an account of results in ChEMBL document CHEMBL1122598, “A cannabinoid derived prototypical analgesic” (1984).

Common to all, as to type: functional
For test [1], the system named is Mus musculus. Nature of the test: Analgesic activity was determined by Mouse phenylbenzoquinone writhing test(PBQ) at a dose of 100 mg/kg subcutaneous administration. The settings on record: sc. A general note: Writhing tests count abdominal constrictions after an irritant is injected.
For test [2], the system named is Mus musculus. Nature of the test: Analgesic activity was determined by Mouse phenylbenzoquinone writhing test(PBQ) at a dose of 10 mg/kg subcutaneous administration. The settings on record: sc.
The test system of test [3] is Mus musculus. Nature of the test: Analgesic activity was determined by mouse phenylbenzoquinone writhing test(PBQ) at a dose 56 mg/kg subcutaneous administration. The settings on record: sc.
Test [4] concerns Mus musculus. The test can be described thus: Analgesic activity was determined by Mouse phenylbenzoquinone writhing test(PBQ) at a dose of 32 mg/kg subcutaneous administration. The settings on record: sc.
Test [5] concerns Mus musculus. The test can be described thus: Analgesic activity was determined by Mouse phenylbenzoquinone writhing test(PBQ) at a dose of 56 mg/kg subcutaneous administration. The settings on record: sc.
For test [6], the species on record is Mus musculus. The test can be described thus: Analgesic activity was determined by mouse hot plate (HP), 1 hour postdose.
The species named for test [7] is Mus musculus. Nature of the test: Analgesic activity was determined by mouse phenylbenzoquinone (PBQ) induced writhing, 1 hour postdose.
For test [8], the species on record is Rattus norvegicus. The test can be described thus: Analgesic activity was determined by rat tail clamp assay(RTC), 2 hour postdose.
The species entered for test [9] is Rattus norvegicus. The test can be described thus: Analgesic activity was determined by rat flinch jump (FJ), 2 hour postdose.
For test [10], the species on record is Mus musculus. Nature of the test: Analgesic activity was determined by mouse tail flick (TF), 1 hour postdose.

With `CCCCCCC(C)(C)c1ccc(C(C)CC(C)O)c(O)c1` (stereo unspecified), the inhibition in vivo (commonly the drop in the measured response relative to a control, in per cent) at 100 mg/kg in the test on Mus musculus [1] turned out to be 53%. The same compound had an inhibition in vivo at 10 mg/kg in the test on Mus musculus [2] of 27%. Also, the inhibition in vivo at 56 mg/kg with Mus musculus [3] turned out to be 55%; in the test with Mus musculus [5], 50%. The inhibition in vivo at 32 mg/kg in the test with Mus musculus [4] was determined as 52%.
Take `CCCCCCC(C)(C)c1ccc([C@H]2CCC[C@H](O)C2)c(O)c1`: the MPE50 in the test filed under Mus musculus [6] was more than 56 mg/kg; in the test listed under Mus musculus [7], 3.8 mg/kg; in the test filed under Rattus norvegicus [8] it was 12.3 mg/kg; in the test filed under Rattus norvegicus [9], 17.8 mg/kg; in the test filed under Mus musculus [10], 55.7 mg/kg.
The corresponding values for `CCCCCCC(C)(C)c1ccc([C@H]2CCCC(=O)C2)c(O)c1` are more than 32 mg/kg, 4.5 mg/kg, 26.1 mg/kg, 11.5 mg/kg and 15.3 mg/kg.
Consider `CCCCCCC(C)(C)c1ccc([C@H]2CCC[C@@H](O)C2)c(O)c1`, for which the MPE50 in the test listed under Mus musculus [6] turned out to be 8.1 mg/kg; in the test filed under Mus musculus [7], 1 mg/kg; in the test filed under Rattus norvegicus [8], 4.7 mg/kg; in the test listed under Rattus norvegicus [9] it was 4.9 mg/kg; in the test listed under Mus musculus [10], 4.4 mg/kg.
Compound `CCCCCCC(C)(C)c1ccc(C(C)CC(C)=O)c(O)c1` (stereo unspecified) returned an inhibition in vivo at 56 mg/kg in the test with Mus musculus [3] of 0%.
Turning to `CCCCCc1cc(O)c2c(c1)OC(C)(C)[C@@H]1CC[C@@H](O)C[C@@H]21`, the MPE50 in the test filed under Mus musculus [6] was found to be 34.4 mg/kg; in the test listed under Mus musculus [7], 0.63 mg/kg; in the test filed under Rattus norvegicus [8] it was 7 mg/kg; in the test listed under Rattus norvegicus [9], 36.4 mg/kg; in the test listed under Mus musculus [10], 9.1 mg/kg.
Taken in the same sequence, the figures for `CCCCCc1cc(O)c2c(c1)OC(C)(C)[C@@H]1CCC(C)=C[C@@H]21` [DRONABINOL] were more than 178 mg/kg, 5.9 mg/kg, 29.1 mg/kg, 83.1 mg/kg and 55 mg/kg.
Take `CN1CC[C@]23c4c5ccc(O)c4O[C@H]2[C@@H](O)C=C[C@H]3[C@H]1C5` [MORPHINE]: the MPE50 in the test listed under Mus musculus [6] worked out at 4.2 mg/kg; in the test filed under Mus musculus [7], 1.8 mg/kg; in the test listed under Rattus norvegicus [8] it was 4.8 mg/kg; in the test filed under Rattus norvegicus [9], 10.3 mg/kg; in the test filed under Mus musculus [10], 5.7 mg/kg.
